According to patent publication US9629822B2, “Flavonoid based antiviral targets” (UNIVERSITY OF CENTRAL FLORIDA RESEARCH FOUNDATION, INC., priority 2012, dated 2017):

Test system: CHO cells
Experiment: CHO cell toxicity, MTS assay, 48 h
Assay type: cell-based, Chinese hamster
Conditions: Cricetulus griseus, CHO, 37° C., MTS reagent, read-out: CHO 48 h IC50 value
Summary of the method: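 CHO cells plated at 10,000 cells/mL, incubated overnight, then exposed to drug (final DMSO <1%) for 48 h at 37 °C, 5% CO2, in triplicate. MTS added for a further 4 h; absorbance read at 490 nm. IC50 taken from relative A490 versus drug concentration.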

| Structure (SMILES) | IC50 [µM] |
| --- | --- |
| COc1ccc(Br)cc1/C=C/C(=O)c1c(O)cccc1OCc1ccccc1 [Compound 8l, (E)-1-(2-(Benzyloxy)-6-hydroxyphenyl)-3-(5-bromo-2-methoxyphenyl)prop-2-en-1-one] | 8.1 ± 1 |

Test system: HIV-1 BaL
Experiment: Anti-HIV assay (luciferase, HIV-1 BaL infection)
Assay type: cell-based
Conditions: 1.25 μM, Experiment 2B
Summary of the method: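 Cells infected with HIV-1 BaL at 2 ng/mL p24 (MOI approx 0.02) in compound presence. Infection read out by luciferase.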

| Structure (SMILES) | RLU (relative luciferase units) [RLU] |
| --- | --- |
| COc1ccc(Br)cc1/C=C/C(=O)c1c(O)cccc1OCc1ccccc1 [Compound 8l, (E)-1-(2-(Benzyloxy)-6-hydroxyphenyl)-3-(5-bromo-2-methoxyphenyl)prop-2-en-1-one] | 262.26 |

Same assay, conditions: 2.5 μM, Experiment 2B

| Structure (SMILES) | RLU (relative luciferase units) [RLU] |
| --- | --- |
| COc1ccc(Br)cc1/C=C/C(=O)c1c(O)cccc1OCc1ccccc1 [Compound 8l, (E)-1-(2-(Benzyloxy)-6-hydroxyphenyl)-3-(5-bromo-2-methoxyphenyl)prop-2-en-1-one] | 215.14 |

Same assay, conditions: 5 μM, Experiment 2B

| Structure (SMILES) | RLU (relative luciferase units) [RLU] |
| --- | --- |
| COc1ccc(Br)cc1/C=C/C(=O)c1c(O)cccc1OCc1ccccc1 [Compound 8l, (E)-1-(2-(Benzyloxy)-6-hydroxyphenyl)-3-(5-bromo-2-methoxyphenyl)prop-2-en-1-one] | 125.95 |

Same assay, conditions: 10 μM, Experiment 1B, 2 ng/mL p24 HIV-1 BaL

| Structure (SMILES) | RLU (relative luciferase units) [RLU] |
| --- | --- |
| COc1ccc(Br)cc1/C=C/C(=O)c1c(O)cccc1OCc1ccccc1 [Compound 8l, (E)-1-(2-(Benzyloxy)-6-hydroxyphenyl)-3-(5-bromo-2-methoxyphenyl)prop-2-en-1-one] | 57.3 |

Same assay, conditions: 10 μM, Experiment 2B

| Structure (SMILES) | RLU (relative luciferase units) [RLU] |
| --- | --- |
| COc1ccc(Br)cc1/C=C/C(=O)c1c(O)cccc1OCc1ccccc1 [Compound 8l, (E)-1-(2-(Benzyloxy)-6-hydroxyphenyl)-3-(5-bromo-2-methoxyphenyl)prop-2-en-1-one] | 23.18 |

Same assay, conditions: 20 μM, Experiment 2B

| Structure (SMILES) | RLU (relative luciferase units) [RLU] |
| --- | --- |
| COc1ccc(Br)cc1/C=C/C(=O)c1c(O)cccc1OCc1ccccc1 [Compound 8l, (E)-1-(2-(Benzyloxy)-6-hydroxyphenyl)-3-(5-bromo-2-methoxyphenyl)prop-2-en-1-one] | 16.87 |

Same assay, conditions: Human immunodeficiency virus 1, BAL, 1.25 μM, Experiment 2B

| Structure (SMILES) | inhibition at 1.25 µM [%] |
| --- | --- |
| COc1ccc(Br)cc1/C=C/C(=O)c1c(O)cccc1OCc1ccccc1 [Compound 8l, (E)-1-(2-(Benzyloxy)-6-hydroxyphenyl)-3-(5-bromo-2-methoxyphenyl)prop-2-en-1-one] | -0.55 |

Same assay, conditions: Human immunodeficiency virus 1, BAL, 2.5 μM, Experiment 2B

| Structure (SMILES) | inhibition at 2.5 µM [%] |
| --- | --- |
| COc1ccc(Br)cc1/C=C/C(=O)c1c(O)cccc1OCc1ccccc1 [Compound 8l, (E)-1-(2-(Benzyloxy)-6-hydroxyphenyl)-3-(5-bromo-2-methoxyphenyl)prop-2-en-1-one] | 17.2 |

Same assay, conditions: Human immunodeficiency virus 1, BAL, 5 μM, Experiment 2B

| Structure (SMILES) | inhibition at 5 µM [%] |
| --- | --- |
| COc1ccc(Br)cc1/C=C/C(=O)c1c(O)cccc1OCc1ccccc1 [Compound 8l, (E)-1-(2-(Benzyloxy)-6-hydroxyphenyl)-3-(5-bromo-2-methoxyphenyl)prop-2-en-1-one] | 54.4 |

Same assay, conditions: Human immunodeficiency virus 1, BAL, 10 μM, Experiment 1B, 2 ng/mL p24 HIV-1 BaL

| Structure (SMILES) | inhibition at 10 µM [%] |
| --- | --- |
| COc1ccc(Br)cc1/C=C/C(=O)c1c(O)cccc1OCc1ccccc1 [Compound 8l, (E)-1-(2-(Benzyloxy)-6-hydroxyphenyl)-3-(5-bromo-2-methoxyphenyl)prop-2-en-1-one] | 93.9 |

Same assay, conditions: Human immunodeficiency virus 1, BAL, 10 μM, Experiment 2B

| Structure (SMILES) | inhibition at 10 µM [%] |
| --- | --- |
| COc1ccc(Br)cc1/C=C/C(=O)c1c(O)cccc1OCc1ccccc1 [Compound 8l, (E)-1-(2-(Benzyloxy)-6-hydroxyphenyl)-3-(5-bromo-2-methoxyphenyl)prop-2-en-1-one] | 91.5 |

Same assay, conditions: Human immunodeficiency virus 1, BAL, 20 μM, Experiment 2B

| Structure (SMILES) | inhibition at 20 µM [%] |
| --- | --- |
| COc1ccc(Br)cc1/C=C/C(=O)c1c(O)cccc1OCc1ccccc1 [Compound 8l, (E)-1-(2-(Benzyloxy)-6-hydroxyphenyl)-3-(5-bromo-2-methoxyphenyl)prop-2-en-1-one] | 94.7 |

Same assay, conditions: Human immunodeficiency virus 1, BAL; inferred from 54.36% inhibition at 5 μM

| Structure (SMILES) | IC50 [µM] |
| --- | --- |
| COc1ccc(Br)cc1/C=C/C(=O)c1c(O)cccc1OCc1ccccc1 [Compound 8l, (E)-1-(2-(Benzyloxy)-6-hydroxyphenyl)-3-(5-bromo-2-methoxyphenyl)prop-2-en-1-one] | < 5 |

Test system: not listed separately
Experiment: TZMbI assay for cell safety (cell viability and growth, CytoTox Glo)
Conditions: human, TZMbI cells, 1.25 μM, Experiment 2A; read-out: % decrease in viability compared to 0.1% DMSO vehicle based on viable cell luminescence
Description: Assays were performed below in accordance with the procedures set forth in The Journal of Immunology, 2006, 176, pp. 6900-905; AIDS Research and Human Retroviruses, 2004, 20:11, pp. 1157-1665.^32,33 TZMbI assays for cell safety were performed to identify potential anti-viral compounds. TZMbI assays for cell safety were performed to identify potential anti-viral compounds per the methods.

| Structure (SMILES) | cytotoxicity at 1.25 μM [%] |
| --- | --- |
| COc1ccc(Br)cc1/C=C/C(=O)c1c(O)cccc1OCc1ccccc1 [Compound 8l, (E)-1-(2-(Benzyloxy)-6-hydroxyphenyl)-3-(5-bromo-2-methoxyphenyl)prop-2-en-1-one] | -2.83 |

Same assay, conditions: human, TZMbI cells, 2.5 μM, Experiment 2A; read-out: % decrease in viability compared to 0.1% DMSO vehicle based on viable cell luminescence

| Structure (SMILES) | cytotoxicity at 2.5 μM [%] |
| --- | --- |
| COc1ccc(Br)cc1/C=C/C(=O)c1c(O)cccc1OCc1ccccc1 [Compound 8l, (E)-1-(2-(Benzyloxy)-6-hydroxyphenyl)-3-(5-bromo-2-methoxyphenyl)prop-2-en-1-one] | -0.43 |

Same assay, conditions: human, TZMbI cells, 5 μM, Experiment 2A; read-out: % decrease in viability compared to 0.1% DMSO vehicle based on viable cell luminescence

| Structure (SMILES) | cytotoxicity at 5 μM [%] |
| --- | --- |
| COc1ccc(Br)cc1/C=C/C(=O)c1c(O)cccc1OCc1ccccc1 [Compound 8l, (E)-1-(2-(Benzyloxy)-6-hydroxyphenyl)-3-(5-bromo-2-methoxyphenyl)prop-2-en-1-one] | 2.2 |

Same assay, conditions: human, TZMbI cells, 10 μM, Experiment 1A; read-out: % decrease in viability compared to 0.1% DMSO vehicle based on viable cell luminescence

| Structure (SMILES) | cytotoxicity at 10 μM [%] |
| --- | --- |
| COc1ccc(Br)cc1/C=C/C(=O)c1c(O)cccc1OCc1ccccc1 [Compound 8l, (E)-1-(2-(Benzyloxy)-6-hydroxyphenyl)-3-(5-bromo-2-methoxyphenyl)prop-2-en-1-one] | 29.8 |

Same assay, conditions: human, TZMbI cells, 10 μM, Experiment 2A; read-out: % decrease in viability compared to 0.1% DMSO vehicle based on viable cell luminescence

| Structure (SMILES) | cytotoxicity at 10 μM [%] |
| --- | --- |
| COc1ccc(Br)cc1/C=C/C(=O)c1c(O)cccc1OCc1ccccc1 [Compound 8l, (E)-1-(2-(Benzyloxy)-6-hydroxyphenyl)-3-(5-bromo-2-methoxyphenyl)prop-2-en-1-one] | 28.7 |

Same assay, conditions: human, TZMbI cells, 20 μM, Experiment 2A; read-out: % decrease in viability compared to 0.1% DMSO vehicle based on viable cell luminescence

| Structure (SMILES) | cytotoxicity at 20 μM [%] |
| --- | --- |
| COc1ccc(Br)cc1/C=C/C(=O)c1c(O)cccc1OCc1ccccc1 [Compound 8l, (E)-1-(2-(Benzyloxy)-6-hydroxyphenyl)-3-(5-bromo-2-methoxyphenyl)prop-2-en-1-one] | 55.2 |

Biological target: T1, US28 receptor (Human cytomegalovirus, UniProt P69332)
T1 construct: expressed in transfected cells; host or cells: HEK 293T cells, transiently transfected
Experiment: PathDetect trans Elk1 luciferase reporter gene assay in US28-transfected 293T HEK cells
Assay type: cell-based, Human Cytomegalovirus (HCMV)
Conditions: 293T HEK cells transiently expressing US28, Elk1 reporter; NE = no effect when tested at 10 μM of compound
Summary of the method: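 HEK293T cells transiently transfected with Elk1, Luc and US28 vector (empty pcDNA3 for mock) were dosed with compounds in DMEM/1% FBS with 1% DMSO for 20-24 h at 37° C. Bright-Glo luminescence decrease was read; EC50 is halfway between maximal response and no-compound control, by non-linear regression.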

T1 sequence (P69332 whole entry): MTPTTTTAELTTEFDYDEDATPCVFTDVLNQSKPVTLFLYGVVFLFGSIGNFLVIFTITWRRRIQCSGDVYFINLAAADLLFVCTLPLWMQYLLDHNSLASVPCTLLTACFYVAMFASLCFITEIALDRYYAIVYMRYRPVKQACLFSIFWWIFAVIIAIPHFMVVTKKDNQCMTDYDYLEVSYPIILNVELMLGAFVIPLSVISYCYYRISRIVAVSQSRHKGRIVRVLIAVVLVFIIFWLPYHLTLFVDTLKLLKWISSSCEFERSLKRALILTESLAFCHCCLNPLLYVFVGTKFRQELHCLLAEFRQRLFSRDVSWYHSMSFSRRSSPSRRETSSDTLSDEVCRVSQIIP

| Structure (SMILES) | EC50 (μM) |
| --- | --- |
| COc1ccc(Br)cc1/C=C/C(=O)c1c(O)cccc1OCc1ccccc1 [Compound 8l, (E)-1-(2-(Benzyloxy)-6-hydroxyphenyl)-3-(5-bromo-2-methoxyphenyl)prop-2-en-1-one] | Toxic |
